# From patent US20230017045A1, “PYRIDINE AND PYRIMIDINE CARBOXYLATE HERBICIDES AND METHODS OF USE THEREOF” (Dow AgroSciences LLC, priority 2017, published 2023)
# Like-named read-outs stand apart in the source and are kept apart here.
# Tested on: test plant species
# Assay: Post-emergent herbicidal activity test (greenhouse, foliar spray, visual growth reduction)
# Assay type: in vivo
# Conditions: post-emergence, 336 h, 140 g ai/ha
# Outline: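 Scoring used a 0 to 100 percent visual scale of growth reduction against solvent-treated controls, read 14 d after spraying. Applications went onto plants at first or second true leaf stage, 187 L/ha, with crop oil concentrate and X-77 surfactant in the carrier. Post-treatment watering was by subirrigation to avoid wash-off.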
# [1] = ECHCG: barnyardgrass (Echinochloa crus-galli), 14 days after application, read-out: Visual Growth Reduction (%) 14 Days After Application, ECHCG
# [2] = IPOHE: ivy-leaf morning glory (Ipomoea hederacea), 14 days after application, read-out: Visual Growth Reduction (%) 14 Days After Application, IPOHE
# [3] = KCHSC: kochia (Bassia scoparia), 14 days after application, read-out: Visual Growth Reduction (%) 14 Days After Application, KCHSC
# [4] = ORYSA: rice (Oryza sativa), 14 days after application, read-out: Visual Growth Reduction (%) 14 Days After Application, ORYSA
# [5] = SETFA: giant foxtail (Setaria faberi), 14 days after application, read-out: Visual Growth Reduction (%) 14 Days After Application, SETFA
# [6] = SORVU: grain sorghum (Sorghum vulgare), 14 days after application, read-out: Visual Growth Reduction (%) 14 Days After Application, SORVU
# [7] = STEME: common chickweed (Stellaria media), 14 days after application, read-out: Visual Growth Reduction (%) 14 Days After Application, STEME
# [8] = TRZAS: wheat, spring (Triticum aestivum), 14 days after application, read-out: Visual Growth Reduction (%) 14 Days After Application, TRZAS
# [9] = blackgrass (Alopecurus myosuroides), 14 Days After Application, read-out: Visual Growth Reduction (%) ALOMY
# [10] = canada thistle (Cirsium arvense), 14 Days After Application, read-out: Visual Growth Reduction (%) CIRAR
# [11] = crabgrass (Digitaria sanguinalis), 14 Days After Application, read-out: Visual Growth Reduction (%) DIGSA
# [12] = lambsquarters (Chenopodium album), 14 Days After Application, read-out: Visual Growth Reduction (%) CHEAL
# [13] = redroot pigweed (Amaranthus retroflexus), 14 Days After Application, read-out: Visual Growth Reduction (%) AMARE
# [14] = wild oat (Avena fatua), 14 Days After Application, read-out: Visual Growth Reduction (%) AVEFA
# [15] = yellow nutsedge (Cyperus esculentus), 14 Days After Application, read-out: Visual Growth Reduction (%) CYPES
SMILES,pest or weed control at 140 g/ha [1] [%],pest or weed control at 140 g/ha [2] [%],pest or weed control at 140 g/ha [3] [%],pest or weed control at 140 g/ha [4] [%],pest or weed control at 140 g/ha [5] [%],pest or weed control at 140 g/ha [6] [%],pest or weed control at 140 g/ha [7] [%],pest or weed control at 140 g/ha [8] [%],pest or weed control at 140 g/ha [9] [%],pest or weed control at 140 g/ha [10] [%],pest or weed control at 140 g/ha [11] [%],pest or weed control at 140 g/ha [12] [%],pest or weed control at 140 g/ha [13] [%],pest or weed control at 140 g/ha [14] [%],pest or weed control at 140 g/ha [15] [%],further results
"COc1c(Cl)ccc(-c2ccc(Cl)c(C(=O)OCc3ccccc3)n2)c1F [F299, Benzyl 3-chloro-6-(4-chloro-2-fluoro-3-methoxyphenyl) picolinate]",0 to 29,60 to 74,75 to 84,0 to 29,0 to 29,0 to 29,60 to 74,0 to 29,0 to 29,75 to 84,0 to 29,75 to 84,60 to 74,0 to 29,75 to 84,–
"O=C(O)c1nc(-c2cc(F)c(C(F)(F)F)cc2Cl)c(F)cc1Cl [F254, 3-Chloro-6-(2-chloro-5-fluoro-4-(trifluoromethyl)phenyl)-5-fluoropicolinic acid]",95 to 100,95 to 100,85 to 94,75 to 84,95 to 100,95 to 100,95 to 100,95 to 100,85 to 94,95 to 100,95 to 100,95 to 100,95 to 100,95 to 100,60 to 74,–
"COC(=O)c1nc(-c2cc(F)c(Cl)cc2Cl)ccc1Cl [F65, Methyl 3-chloro-6-(2,4-dichloro-5-fluorophenyl) picolinate]",60 to 74,95 to 100,0 to 29,30 to 44,85 to 94,60 to 74,0 to 29,–,–,–,–,–,–,–,–,"pest or weed control at 140 g/ha (ALOMY: blackgrass (Alopecurus myosuroides), 14 days after application, read-out: Visual Growth Reduction (%) 14 Days After Application, ALOMY): 0 to 29%; pest or weed control at 140 g/ha (AMARE: redroot pigweed (Amaranthus retroflexus), 14 days after application, read-out: Visual Growth Reduction (%) 14 Days After Application, AMARE): 95 to 100%; pest or weed control at 140 g/ha (AVEFA: wild oat (Avena fatua), 14 days after application, read-out: Visual Growth Reduction (%) 14 Days After Application, AVEFA): 0 to 29%; pest or weed control at 140 g/ha (CHEAL: lambsquarters (Chenopodium album), 14 days after application, read-out: Visual Growth Reduction (%) 14 Days After Application, CHEAL): 60 to 74%; pest or weed control at 140 g/ha (CIRAR: canada thistle (Cirsium arvense), 14 days after application, read-out: Visual Growth Reduction (%) 14 Days After Application, CIRAR): 85 to 94%; pest or weed control at 140 g/ha (CYPES: yellow nutsedge (Cyperus esculentus), 14 days after application, read-out: Visual Growth Reduction (%) 14 Days After Application, CYPES): 0 to 29%; pest or weed control at 140 g/ha (DIGSA: crabgrass (Digitaria sanguinalis), 14 days after application, read-out: Visual Growth Reduction (%) 14 Days After Application, DIGSA): 95 to 100%"
"COC(=O)c1nc(-c2cc(OC)c3c(c2)OCO3)c(F)cc1Cl [F231, Methyl 3-chloro-5-fluoro-6-(7-methoxybenzo[d] [1,3]dioxol-5-yl)picolinate]",0 to 29,0 to 29,0 to 29,0 to 29,0 to 29,0 to 29,0 to 29,0 to 29,0 to 29,0 to 29,0 to 29,0 to 29,0 to 29,0 to 29,0 to 29,–
